Measured values from publication PMC8784342, “Investigation of sugar binding kinetics of the E. coli sugar/H^+ symporter XylE using solid-supported membrane-based electrophysiology” (The Journal of Biological Chemistry, 2021).
Values joined by “and” are separate entries in the source; they are usually repeats but may differ in a detail not shown here. Equal values may be shown once.

Assays:
[1] = target: wt XylE (Escherichia coli, UniProt P0AGF4); assay: biochemical; parameters: made in house; host or cells: E. coli BL21 DE3
Chain of wt XylE (P0AGF4 whole entry): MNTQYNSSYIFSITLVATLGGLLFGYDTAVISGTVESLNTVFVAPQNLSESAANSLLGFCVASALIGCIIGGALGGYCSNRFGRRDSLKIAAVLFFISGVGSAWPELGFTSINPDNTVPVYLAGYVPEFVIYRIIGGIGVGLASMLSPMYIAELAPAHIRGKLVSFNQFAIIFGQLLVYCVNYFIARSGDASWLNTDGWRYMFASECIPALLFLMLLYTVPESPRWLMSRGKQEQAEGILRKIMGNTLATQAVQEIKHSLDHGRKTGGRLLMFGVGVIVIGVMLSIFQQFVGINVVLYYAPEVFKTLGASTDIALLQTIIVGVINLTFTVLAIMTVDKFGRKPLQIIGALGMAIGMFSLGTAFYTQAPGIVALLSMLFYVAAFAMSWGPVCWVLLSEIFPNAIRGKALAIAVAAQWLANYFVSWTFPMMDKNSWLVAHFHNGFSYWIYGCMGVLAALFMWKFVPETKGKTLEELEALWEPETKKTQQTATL
Method: (§1) Reconstitution of purified proteins (2–20 mg/ml) was carried out with E. coli phospholipids (Avanti Polar Lipids, E. coli polar lipid extract). Preformed liposomes (0.2–2 ml, 10 mg/ml) were dissolved in 1% (w/v) n-octyl-β-D-glucoside, and the protein suspension was mixed on ice to a concentration of 0.2 mg protein/mg lipid (LPR 5).
(§2) Wt XylE, wt FucP, and the mutant proteins were reconstituted using overnight incubation in 400 mg/ml BioBeads (SM-2 Adsorbent Media, Bio-Rad) at 4 °C. After reconstitution, the samples were diluted to 2.5 mg/ml lipid concentration, frozen in liquid nitrogen, and stored at −80 °C. For wt LacY and mutant proteins, this procedure was not successful. We, therefore, applied the previously established n-octyl-β-D-glucoside dilution method (1:100) ([69]).
(§3) SSM measurements were performed as described ([20], [23]). After thawing the sample and sonication in a water bath, 30 μl of proteoliposomes (2.5 mg/ml lipid at LPR 5) was allowed to adsorb for 1 to 2 h to an octadecanethiol/phosphatidylcholine hybrid bilayer on a gold surface (the sensor).
(§4) For measurements, a single solution exchange configuration ([23]) was employed that consisted in three phases of 0.5 s duration each: Flow of nonactivating solution (NA), activating solution (A), and nonactivating solution (NA). Only the activating solution contained the sugar. When pH dependence is determined, pH of NA and A solutions during one experiment are kept constant. Between experiments using different pH values, the sensor was incubated at the new pH for 3 min to equilibrate the intraliposomal pH.
(§5) Instruments with different time resolution were used as required. […] Currents were recorded throughout the entire time and amplified with a current amplifier set to a gain of […] and a rise time of 10 ms (low time-resolution set up) or 3 ms (high time-resolution set up).
(§6) All NA solutions were buffered in 100 mM KPi at a given pH value. NA solutions used with LacY contained 1 mM DTT in addition. A solutions were made from NA solutions by adding the respective sugar at a given concentration to induce the symport reaction. Sugar concentration jumps initiated sugar-proton symport, and charge transfer was measured by capacitive coupling. Therefore, only transient currents were recorded.
(§7) Each dataset represented with error bars was generated by performing the same experiment on multiple sensors (n ≥ 3). Error bars represent standard deviations of the average value. When peak currents are averaged across sensors, datasets are normalized before averaging. When the protein catalyzes transport and PSS currents are negligible, the peak current of the transient represents a good approximation of the current generated by the steady-state symport activity of the transporter. In most cases, peak currents have been used to derive kinetic and thermodynamic parameters according to the equations given in Figure 2 (KM, Imax ∼ Vmax, Hill coefficient n), Figure 4 (KD and rate constants for sugar binding kon and release koff), and Figure 6 (pKa for proton binding and pKb for proton release). Reconstruction of transporter currents for analysis of biphasic currents has been performed as described previously ([70]). This is required when transport and PSS currents are observed at the same time.

[2] = system: C154G/V331C LacY; parameters: method as in PMID 19383792, PMID 17176050; conditions: stopped flow; cited from earlier work
[3] = target: T1, wt LacY (Escherichia coli, UniProt P02920); assay: SSM-based electrophysiology, proteoliposomes with wt LacY; assay type: biochemical; conditions: pH 7.6
T1 construct: made in house; host or cells: E. coli XL1-Blue
T1 sequence (P02920 1-417): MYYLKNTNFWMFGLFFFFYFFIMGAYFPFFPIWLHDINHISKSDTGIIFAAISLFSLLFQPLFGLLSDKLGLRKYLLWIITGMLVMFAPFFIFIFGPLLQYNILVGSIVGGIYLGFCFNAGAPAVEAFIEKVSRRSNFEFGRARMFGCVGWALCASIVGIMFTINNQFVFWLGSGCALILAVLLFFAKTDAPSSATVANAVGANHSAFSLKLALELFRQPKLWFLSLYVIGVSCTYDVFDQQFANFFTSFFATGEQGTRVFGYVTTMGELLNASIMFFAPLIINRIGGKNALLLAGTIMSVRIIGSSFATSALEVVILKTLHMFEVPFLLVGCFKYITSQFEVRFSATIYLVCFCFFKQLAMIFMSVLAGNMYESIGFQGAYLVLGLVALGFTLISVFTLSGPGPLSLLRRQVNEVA
Method: as §1, §2, §3, §4, §5, §6, §7

[4] = target: T2, E325A LacY (Escherichia coli, UniProt P02920, E325A); assay: SSM-based electrophysiology, transport-deficient mutant E325A LacY (PSS currents, electrogenic binding); assay type: biochemical
T2 construct: made in house; host or cells: E. coli XL1-Blue
T2 sequence (P02920 whole entry E325A): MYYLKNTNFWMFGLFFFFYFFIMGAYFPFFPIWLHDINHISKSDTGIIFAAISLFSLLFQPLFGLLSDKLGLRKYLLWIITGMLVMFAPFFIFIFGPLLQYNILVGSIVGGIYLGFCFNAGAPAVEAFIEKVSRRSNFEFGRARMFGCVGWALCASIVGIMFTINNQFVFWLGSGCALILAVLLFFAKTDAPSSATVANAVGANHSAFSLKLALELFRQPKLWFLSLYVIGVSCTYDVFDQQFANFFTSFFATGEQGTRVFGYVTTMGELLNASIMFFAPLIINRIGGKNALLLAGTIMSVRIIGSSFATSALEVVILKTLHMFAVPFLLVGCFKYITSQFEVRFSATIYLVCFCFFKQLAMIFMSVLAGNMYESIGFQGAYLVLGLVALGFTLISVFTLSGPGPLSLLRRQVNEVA
Method: as §1, §2, §3, §4, §5, §6, §7

[5] = target: T3, D27N XylE (Escherichia coli, UniProt P0AGF4, D27N); assay: SSM-based electrophysiology, transport-deficient mutant D27N XylE (PSS currents, electrogenic binding); assay type: biochemical
T3 construct: made in house; host or cells: E. coli BL21 DE3
T3 sequence (P0AGF4 whole entry D27N): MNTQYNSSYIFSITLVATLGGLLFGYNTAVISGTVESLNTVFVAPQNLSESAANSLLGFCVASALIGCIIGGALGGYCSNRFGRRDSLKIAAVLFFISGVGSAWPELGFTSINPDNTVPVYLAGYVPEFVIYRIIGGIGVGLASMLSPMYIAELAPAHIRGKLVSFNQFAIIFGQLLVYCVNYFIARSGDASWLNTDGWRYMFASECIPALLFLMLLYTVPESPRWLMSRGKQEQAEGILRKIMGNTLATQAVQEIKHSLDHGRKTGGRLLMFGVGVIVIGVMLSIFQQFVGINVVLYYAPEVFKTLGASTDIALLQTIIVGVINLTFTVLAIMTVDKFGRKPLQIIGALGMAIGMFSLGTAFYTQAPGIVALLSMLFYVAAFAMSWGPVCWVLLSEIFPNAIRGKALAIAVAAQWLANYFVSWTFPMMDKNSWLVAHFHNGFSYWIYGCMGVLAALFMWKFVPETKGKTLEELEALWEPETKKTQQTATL
Method: as §1, §2, §3, §4, §5, §6, §7

[6] = target: T4, Q175I/L297F XylE (Escherichia coli, UniProt P0AGF4, L297F/Q175I); assay: biochemical
T4 construct: made in house; host or cells: E. coli BL21 DE3
T4 sequence (P0AGF4 whole entry Q175I/L297F): as the sequence (P0AGF4 whole entry D27N) above, with N27D, Q175I, L297F counted along it
Method: as §1
as §2, with “For wt LacY and mutant proteins, this procedure was not successful.” left out
as §3, §4, §5, §6, §7

[7] = target: T5, D46N FucP (Escherichia coli, UniProt P11551, D46N); assay: SSM-based electrophysiology, transport-deficient mutant D46N FucP (PSS currents); assay type: biochemical
T5 construct: made in house; host or cells: E. coli BL21 DE3
T5 sequence (P11551 whole entry D46N): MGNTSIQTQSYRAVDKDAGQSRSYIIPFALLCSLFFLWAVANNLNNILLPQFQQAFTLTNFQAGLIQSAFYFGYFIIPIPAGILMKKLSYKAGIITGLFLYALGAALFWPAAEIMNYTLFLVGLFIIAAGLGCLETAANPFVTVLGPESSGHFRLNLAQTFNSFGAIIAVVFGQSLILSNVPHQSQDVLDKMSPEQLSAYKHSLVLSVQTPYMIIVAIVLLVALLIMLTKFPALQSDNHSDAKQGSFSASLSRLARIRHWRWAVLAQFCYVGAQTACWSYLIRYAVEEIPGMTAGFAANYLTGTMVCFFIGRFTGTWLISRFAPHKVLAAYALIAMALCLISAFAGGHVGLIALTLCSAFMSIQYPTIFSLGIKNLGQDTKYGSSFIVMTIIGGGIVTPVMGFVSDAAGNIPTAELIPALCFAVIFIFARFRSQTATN
Method: as §1, §2, §3, §4, §5, §6, §7

[8] = target: XylE; parameters: method as in PMID 23075985; conditions: read-out: KD, isothermal titration calorimetry; cited from earlier work
[9] = system: XylE; conditions: uptake and competition-uptake assays; cited from earlier work
[10] = target: T6, wt FucP (Escherichia coli, UniProt P11551); assay: SSM-based electrophysiology, proteoliposomes with wt FucP; assay type: biochemical
T6 construct: made in house; host or cells: E. coli BL21 DE3
T6 sequence (P11551 1-438): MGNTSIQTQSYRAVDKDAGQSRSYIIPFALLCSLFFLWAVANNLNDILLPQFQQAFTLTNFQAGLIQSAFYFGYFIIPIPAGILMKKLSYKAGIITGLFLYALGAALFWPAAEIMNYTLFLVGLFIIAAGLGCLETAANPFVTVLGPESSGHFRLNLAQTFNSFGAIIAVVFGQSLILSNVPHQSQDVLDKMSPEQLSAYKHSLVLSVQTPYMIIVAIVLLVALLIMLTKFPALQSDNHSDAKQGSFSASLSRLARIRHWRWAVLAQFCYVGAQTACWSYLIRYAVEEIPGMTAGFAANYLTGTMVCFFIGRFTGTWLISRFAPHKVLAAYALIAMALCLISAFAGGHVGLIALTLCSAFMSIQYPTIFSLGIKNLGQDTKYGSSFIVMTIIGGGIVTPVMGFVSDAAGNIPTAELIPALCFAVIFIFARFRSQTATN
Method: as §1, §2, §3, §4, §5, §6, §7

[11] = reconstructed transporter currents, alkaline range, double titration
[12] = EC50,1, double Michaelis–Menten fit, pH 7.6, peak currents
[13] = EC50,2, double Michaelis–Menten fit, pH 7.6, peak currents
[14] = pH 7.6, peak currents, Hill equation

## OC[C@@H]1OC(O)[C@H](O)[C@@H](O)[C@@H]1O (stereo partly drawn) [L-idose]
[1]; pH 7.0
  induction of currents (substrate identification): generated signals identifying them as substrates

## O=[N+]([O-])c1ccc(OC2O[C@H](CO)[C@H](O)[C@H](O)[C@H]2O)cc1 (stereo partly drawn) [p-nitrophenyl-D-galactopyranoside]
[2]
  rate constant of the binding reaction: 10^6 M^−1 s^−1
  rate constant of the following conformational changes: 250 s⁻¹

## OC[C@H]1O[C@@H](O[C@@H]2[C@@H](CO)OC(O)(CO)[C@H]2O)[C@H](O)[C@@H](O)[C@H]1O (mixture of isomers) [Lactulose]
[3]; EC50,1, double Michaelis–Menten fit, peak currents
  EC50: 880 ± 100 µM
[3]; EC50,2, double Michaelis–Menten fit, peak currents
  EC50: 90000 ± 42000 µM
[3]
  Imax in percent of Imax of the main substrate (D-lactose): 71 ± 8%
[3]; peak currents, Hill equation
  n (Hill coefficient): 0.55 ± 0.08
[4]
  Kd: 5000 ± 600 µM
[4]; pH 7.6, saturating substrate (100 mM D-lactose, lactulose; 5 mM TDG)
  Q (pC) Mut, transferred charge: 2.2 ± 0.5 (pH 7.6) pC
[4]; saturating substrate (100 mM D-lactose, lactulose; 5 mM TDG), kobs = 1/τ, limited by time resolution
  kobs (s^−1) mut: 380 ± 40 s⁻¹

## OC[C@H]1OC(O)[C@H](O)[C@@H](O)[C@@H]1O (stereo partly drawn) [D-glucose]
[5]; KD (mM) mut, pH 7.6, hyperbolic fit of peak currents, in Table 3 headed EC50
  Kd: 1.9 ± 0.35 mM
[5]; KD from fit of concentration-dependent kobs, pH 7.6
  Kd: 0.67 ± 0.1 mM
[5]; pH 7.6
  Imax (nA) slow component: <0.05 nA
[5]; pH 7.6, 30 mM substrate
  Q (pC) Mut, transferred charge: 1.1 ± 0.3 (pH 7.6) pC
[5]; pH 7.6, saturating substrate
  IPeak (pA) fast component: 60 pA and 60 ± 25 pA
[5]; saturating substrate (30 mM), kobs = 1/τ, monoexponential fit, limited by time resolution
  kobs (s^−1) mut: 300 ± 40 s⁻¹
[6]; pH 7.6, saturating substrate
  IPeak (pA) fast component: 240 pA and 240 ± 40 pA
[6]; reconstructed transporter currents, acidic range
  pKa: 4.6 ± 0.1
[6]; [11]
  pKb1: ~7.5 and 7.3 ± 0.1
  pKb2: 9.8 ± 0.2
[7]
  induction of PSS currents: do not generate PSS currents
[8]
  Kd: 770 µM
[1]
  Kb: 0.0398 nM
[1]; [12]
  EC50: 160 ± 10 µM
[1]; [13]
  EC50: 6500 ± 900 µM
[1]; EC50, Hill fit, pH 7.6, peak currents, Hill equation
  EC50: 920 ± 120 µM
[1]; apparent EC50 (half saturation constant, Michaelis–Menten equation; KM column), pH 7.6, D-glucose-induced slow PSS current, not transport
  EC50: 380 µM and 400 µM
[1]; pH 3.0, 30 mM substrate
  Q (pC) wt, PSS transferred charge: 2.5 ± 1 (pH 3.0) pC
[1]; pH 7.0
  slow peak current amplitude compared with D-xylose-induced currents: 26%
[1]; pH 7.6
  Imax in percent of Imax of the main substrate (D-xylose): 26% and 26 ± 5%
[1]; pH 7.6, hyperbolic fit of peak current
  Imax (nA) slow component: 0.47 ± 0.1 nA
[1]; [14]
  n (Hill coefficient): 0.57 ± 0.03
[1]; pH 7.6, saturating substrate, transport current given as upper limit
  IPeak (pA) fast component: <470 pA
[1]; pH-dependent peak currents, acidic range
  pKa: 4.7 ± 0.1
[9]
  transport of radioactively labeled sugar: not transported

## OC1OC[C@@H](O)[C@@H](O)[C@@H]1O (stereo partly drawn) [D-arabinose]
[10]; [12]
  EC50: 820 ± 530 µM
[10]; [13]
  EC50: 38000 ± 9000 µM
[10]; pH 7.6
  Imax in percent of Imax of the main substrate (L-fucose): 132 ± 13%
[10]; [14]
  n (Hill coefficient): 0.62 ± 0.04

## OC[C@H]1OC(O)[C@@H](O)[C@H](O)[C@@H]1O (stereo partly drawn) [D-altrose]
[10]; pH 8.0
  induction of currents (substrate identification): generated signals identifying them as substrates
